Assay results from patent US11814372B2, “Agonists of EPHA and their uses” (CASE WESTERN RESERVE UNIVERSITY, priority 2017, dated 2023).

Assays:
EphA2 = EphA2 (Homo sapiens, UniProt P29317); assay: EphA2 activation in MDA-231-A2 cells (pEphA/B immunoblot, EphA2 immunoprecipitation); type: cell-based; set-up: expressed in transfected cells; host or cells: MDA-MB-231 (MDA-231-A2), HEK 293 (HEK 293-A2), A172 (A172-A2), U373 (U373-A2)
Description: Cells were plated in 24-well dishes at a density of 100,000 cells/well and grown for 24 hours prior to stimulation with appropriate compounds and ephrins for the given amounts of time. Compounds were prepared in DMSO at 500 times the final concentrations and 0.2% DMSO was used as vehicle control. Following treatment, cells were lysed directly in SDS Gel Loading Buffer and immunoblotted as described previously. Immunoprecipitation and immunofluorescence staining was performed as described. For immunoprecipitation, 300,000 cells/well were plated in 6-well dishes and lysed in modified RIPA Buffer (20 mM Tris-HCl pH 7.4, 20 mM NaF, 150 mM NaCl, 10% glycerol, 0.1% SDS, 0.5% DCA, 2 mM EDTA, 1% Triton X-100) following treatment. Either […] of ephrin-A1-Fc, or […] of EphA2 mouse monoclonal antibody (Clone D7, Millipore) were used, and mouse IgG was used as a negative control for EphA2 IP. To identify small molecule agonists for EphA2, we took a structure-based in silico screening approach. […] This notion was confirmed recently by determination of the crystal structure of the EphA2/ephrin-A1 complex (FIG. 1B). The size falls in the range of common drugs, making EphA2 LBD a desirable target for drug discovery. Toward this end, we initiated in silico screening to search for small molecules that interact favorably with the ligand-binding pocket of EphA2 derived from molecular modeling before the crystal structure became available. Multiple conformations for each structure were generated with OMEGA (OpenEye) and each conformation was docked individually using DOCK. Our initial screening of over 750,000 compounds identified a number of small molecules that could potentially interact with the ligand-binding pocket. The commercially available top-scoring compounds were screened for their ability to induce EphA2 activation in MDAMB-231 breast cancer cells. Because MDA-MB-231 cells express endogenous EphA2 as well as other Eph receptors, including EphA1, we overexpressed EphA2 in order to minimize the contribution from other Eph receptors in our analysis. […] Total cell lysates were probed with a previously described antibody that recognizes the activated Eph receptors.

PC-3 cells = assay: Cell rounding analysis; type: cell-based, human; conditions: 50 µM, 30 or 60 min
Description: As we first reported in 2000, EphA2 activation on PC-3 cells by ephrin-A1 induced rapid cell rounding, a phenomenon that is correlated with inhibition of integrin function.

EphB4 = target: T1, EphB4 (Homo sapiens, UniProt P54760); assay: Activation of endogenous EphB4 in HEK 293 vector control cells; type: cell-based
T1 construct: host or cells: HEK 293 vector control cells
T1 sequence (P54760 16-987): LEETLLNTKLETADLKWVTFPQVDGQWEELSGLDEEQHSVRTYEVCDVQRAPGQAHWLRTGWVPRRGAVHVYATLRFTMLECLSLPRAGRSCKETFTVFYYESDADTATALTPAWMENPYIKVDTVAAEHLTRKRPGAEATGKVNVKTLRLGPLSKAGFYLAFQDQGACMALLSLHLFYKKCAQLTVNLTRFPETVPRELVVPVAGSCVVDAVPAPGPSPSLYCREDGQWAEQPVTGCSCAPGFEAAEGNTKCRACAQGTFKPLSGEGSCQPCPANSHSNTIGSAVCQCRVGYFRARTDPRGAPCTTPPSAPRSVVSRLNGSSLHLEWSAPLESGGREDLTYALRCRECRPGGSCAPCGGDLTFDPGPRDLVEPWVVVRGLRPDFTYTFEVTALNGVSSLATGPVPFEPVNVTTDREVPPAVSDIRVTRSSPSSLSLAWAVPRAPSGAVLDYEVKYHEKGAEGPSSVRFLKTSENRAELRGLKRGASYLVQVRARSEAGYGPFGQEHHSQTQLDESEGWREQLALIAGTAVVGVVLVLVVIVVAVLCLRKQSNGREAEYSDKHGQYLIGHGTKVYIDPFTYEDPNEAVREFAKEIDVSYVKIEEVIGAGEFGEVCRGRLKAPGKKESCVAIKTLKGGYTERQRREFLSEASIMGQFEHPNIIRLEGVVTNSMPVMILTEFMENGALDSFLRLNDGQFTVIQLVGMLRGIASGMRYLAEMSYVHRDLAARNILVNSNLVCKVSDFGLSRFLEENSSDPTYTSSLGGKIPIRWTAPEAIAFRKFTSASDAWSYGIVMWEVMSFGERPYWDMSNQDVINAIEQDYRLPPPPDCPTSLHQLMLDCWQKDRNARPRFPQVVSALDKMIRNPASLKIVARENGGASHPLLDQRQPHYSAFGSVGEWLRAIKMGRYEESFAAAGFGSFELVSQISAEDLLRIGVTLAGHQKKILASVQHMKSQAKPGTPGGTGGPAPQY

[1] = MDA-231-A2 cells, single 50 μM dose

EphA2, sequence (P29317 24-976): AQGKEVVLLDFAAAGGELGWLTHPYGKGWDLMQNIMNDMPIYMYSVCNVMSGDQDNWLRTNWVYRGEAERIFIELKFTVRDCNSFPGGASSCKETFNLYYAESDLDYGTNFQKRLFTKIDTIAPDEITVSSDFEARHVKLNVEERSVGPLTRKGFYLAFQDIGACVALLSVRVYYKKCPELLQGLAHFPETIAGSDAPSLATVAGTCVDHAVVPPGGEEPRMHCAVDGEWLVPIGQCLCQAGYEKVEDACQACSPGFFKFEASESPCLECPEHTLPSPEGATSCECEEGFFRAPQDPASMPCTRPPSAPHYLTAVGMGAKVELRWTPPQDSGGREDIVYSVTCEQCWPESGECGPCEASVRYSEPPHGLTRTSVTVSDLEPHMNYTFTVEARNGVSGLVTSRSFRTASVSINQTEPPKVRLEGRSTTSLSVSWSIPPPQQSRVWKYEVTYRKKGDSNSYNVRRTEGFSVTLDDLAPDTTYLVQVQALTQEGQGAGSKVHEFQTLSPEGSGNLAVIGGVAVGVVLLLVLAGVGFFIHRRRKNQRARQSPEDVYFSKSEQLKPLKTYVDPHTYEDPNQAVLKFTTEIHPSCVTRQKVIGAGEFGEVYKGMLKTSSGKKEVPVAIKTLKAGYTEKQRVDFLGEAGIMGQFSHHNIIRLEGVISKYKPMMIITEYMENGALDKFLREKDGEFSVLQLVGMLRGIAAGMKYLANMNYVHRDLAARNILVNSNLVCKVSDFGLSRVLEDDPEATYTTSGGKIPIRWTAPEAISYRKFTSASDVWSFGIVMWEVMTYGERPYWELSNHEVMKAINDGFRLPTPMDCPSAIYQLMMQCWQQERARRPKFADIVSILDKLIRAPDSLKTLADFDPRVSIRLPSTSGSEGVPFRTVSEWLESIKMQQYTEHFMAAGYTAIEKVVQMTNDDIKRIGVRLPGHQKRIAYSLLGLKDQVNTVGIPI

For COc1cc2nc(N3CCN(C(=O)C4COc5ccccc5O4)CC3)nc(N)c2cc1OC (centres unmarked) [doxazosin], the “EphA2 activation after phenoxybenzamine pretreatment versus no pretreatment” value (EphA2; MDA-231-A2 cells pretreated with 1 μM phenoxybenzamine, then 1 hour treatment) was “No difference in EphA2 activation”, the “EphA2 activation, screening of top-scoring compounds” value (EphA2; MDA-231-A2 cells, compounds at 50 µM, 30 minutes) was “activated EphA2 to the greatest extent” and the “EphA2 level after treatment” value (EphA2; MDA-231-A2 cells, high doses) was “degradation of EphA2”. The “EphA2 activation, dose-response” value (EphA2; MDA-231-A2 cells, multiple doses, 30 minutes) was “dose-dependent manner”, the “earliest time of significant EphA2 activation” value (EphA2; [1]) was 5 min and the “time of peak EphA2 activation” value (EphA2; [1]) was “around 30 min”. The cell rounding (PC-3 cells) was “caused rounding of PC-3 cells” and the “endogenous EphB4 activation” value (EphB4) was “not activated”.
